Reference: US4218562A, “Antibiotic derivatives of XK-62-2” (Abbott Laboratories, priority 1978, dated 1980)
In brackets after ≈: the same amount, converted by molar mass.

Columns and labels:
[1] = test system: Escherichia coli ATCC 26; experiment: Agar dilution MIC, pH 8.0: Escherichia coli ATCC 26; format: cell-based; conditions: ATCC26, agar-dilution method, pH 8.0, read-out: Minimum Inhibitory Concentration
[2] = test system: Bacillus subtillus ATCC 6688; experiment: Agar dilution MIC, pH 7.2: Bacillus subtillus ATCC 6688; format: cell-based; conditions: ATCC6688, agar dilution method, pH 7.2, read-out: Minimum Inhibitory Concentration
[3] = test system: Salmanella typhosa ATCC 9992; experiment: microbe, parasite or virus in culture; format: cell-based; conditions: agar-dilution method, pH 8.0; read-out: Minimum Inhibitory Concentration
[4] = test system: Sarcina lucca ATCC 9341; experiment: Agar dilution MIC, pH 7.2: Sarcina lucca ATCC 9341; format: cell-based; conditions: ATCC9341, pH 7.2, read-out: Minimum Inhibitory Concentration
[5] = test system: Krobsiella pneumoniae ATCC 10081; experiment: Agar dilution MIC, pH 8.0: Krobsiella pneumoniae ATCC 10081; format: cell-based; conditions: agar-dilution method, pH 8.0; read-out: Minimum Inhibitory Concentration
[6] = test system: Proteus marganii KY 4298; experiment: Agar dilution MIC, pH 7.2: Proteus marganii KY 4298; format: cell-based; conditions: agar dilution method, pH 7.2; read-out: Minimum Inhibitory Concentration
[7] = test system: Proteus vulgaris ATCC 6897; experiment: Agar dilution MIC, pH 8.0: Proteus vulgaris ATCC 6897; format: cell-based; conditions: ATCC6897, agar-dilution method, pH 8.0, read-out: Minimum Inhibitory Concentration
[8] = Solubility; format: physicochemical
[9] = test system: Pseudomonas aeruginosa BMH No. 1; experiment: Agar dilution MIC, pH 7.2: Pseudomonas aeruginosa BMH No. 1; format: cell-based; conditions: BMHNO.1, agar dilution method, pH 7.2, read-out: Minimum Inhibitory Concentration
[10] = test system: Shigella seanei ATCC 9250; experiment: microbe, parasite or virus in culture; format: cell-based; conditions: ATCC9250, agar-dilution method, pH 8.0, read-out: Minimum Inhibitory Concentration
[11] = test system: strains of Escherichia coli having an R factor; experiment: Anti-bacterial activity against Escherichia coli having an R factor; format: cell-based; conditions: E. coli having an R factor which shows resistance to known aminoglycoside antibiotics
[12] = test system: Pseudomanas aeruginosa BMH 1; experiment: Agar dilution MIC, pH 8.0: Pseudomonas aeruginosa BMH 1; format: cell-based; conditions: BMH1, agar-dilution method, pH 8.0, read-out: Minimum Inhibitory Concentration
[13] = test system: Bacillus subtilis No. 10707; experiment: Agar dilution MIC, pH 8.0: Bacillus subtilis No. 10707; format: cell-based; conditions: NO.10707, agar-dilution method, pH 8.0, read-out: Minimum Inhibitory Concentration
[14] = test system: Staphylococcus aureus ATCC 6538P; experiment: Agar dilution MIC, pH 8.0: Staphylococcus aureus ATCC 6538P; format: cell-based; conditions: ATCC6538P, agar-dilution method, pH 8.0, read-out: Minimum Inhibitory Concentration
[15] = test system: Escherichia coli KY 8327; experiment: Agar dilution MIC, pH 8.0: Escherichia coli KY 8327; format: cell-based; conditions: for MIC: Escherichia coli, KY8327, agar-dilution method, pH 8.0, strain produces gentamicin adenyltransferase, read-out: Minimum Inhibitory Concentration; for anti-bacterial activity: comparison of MIC in Table 1, E. coli KY 8327
Excerpt: (§1) The former bacterium inactivates kanamycins and gentamicins by adenylation, and the latter inactivates gentamicins by acetylation.

[16] = test system: Escherichia coli KY 8348; experiment: Agar dilution MIC, pH 8.0: Escherichia coli KY 8348; format: cell-based; conditions: for MIC: Escherichia coli, KY8348, agar-dilution method, pH 8.0, strain produces gentamicin acetyltransferase Type I, read-out: Minimum Inhibitory Concentration; for anti-bacterial activity: comparison of MIC in Table 1, E. coli KY 8348
Excerpt: as §1

With `CNC[C@@H]1CC[C@@H](N)[C@@H](O[C@H]2[C@H](O)[C@@H](O[C@H]3OC[C@](C)(O)[C@H](NC)[C@H]3O)[C@H](N)C[C@@H]2N)O1` [XK-62-2] the MIC [1] was 0.016 µg/mL (≈ 0.0345 µM), the MIC [2] was < 0.05 µg/mL and the MIC [3] was 0.008 µg/mL (≈ 0.0173 µM). For the same compound, the MIC [4] was 0.4 µg/mL (≈ 0.863 µM), the MIC [5] was 0.004 µg/mL (≈ 0.00863 µM) and the MIC [6] was 0.4 µg/mL (≈ 0.863 µM). The MIC [7] was 0.033 µg/mL (≈ 0.0712 µM), the solubility ([8]; in chloroform, benzene, ethyl acetate and n-hexane) was “insoluble” and the solubility ([8]; in ethanol and acetone) was “slightly soluble”. For the same compound, the solubility ([8]; in water and methanol) was “well soluble”, the MIC [9] was 0.78 µg/mL (≈ 1.68 µM) and the MIC [10] was 0.033 µg/mL (≈ 0.0712 µM).
With `CNC[C@@H]1CC[C@@H](NC(=O)[C@@H](O)CCN)[C@@H](O[C@H]2[C@H](O)[C@@H](O[C@H]3OC[C@](C)(O)[C@H](NC)[C@H]3O)[C@H](NC(=O)[C@@H](O)CCN)C[C@@H]2N)O1` [III, 1-N-2'-N-bis-[L-(-)-α-hydroxy-γ-aminobutyryl]XK -62-2] the anti-bacterial activity [11] was “strong anti-bacterial activity”, the MIC [1] was 0.065 µg/mL (≈ 0.0976 µM) and the MIC [12] was 8.34 µg/mL (≈ 12.5 µM). It also gave an MIC [5] of 0.065 µg/mL (≈ 0.0976 µM), an MIC [13] of 0.008 µg/mL (≈ 0.012 µM) and an MIC [14] of 0.065 µg/mL (≈ 0.0976 µM). For the same compound, the MIC [7] was 0.521 µg/mL (≈ 0.783 µM), the MIC [15] was 0.065 µg/mL (≈ 0.0976 µM) and the “anti-bacterial activity” value [15] was “strong anti-bacterial activity”. The MIC [10] was 0.26 µg/mL (≈ 0.391 µM), the MIC [16] was 0.065 µg/mL (≈ 0.0976 µM) and the “anti-bacterial activity” value [16] was “strong anti-bacterial activity”.
With `CNC[C@@H]1CC[C@@H](NC(=O)[C@@H](O)CCN)[C@@H](O[C@H]2[C@H](O)[C@@H](O[C@H]3OC[C@](C)(O)[C@H](NC)[C@H]3O)[C@H](N)C[C@@H]2N)O1` [Compound I, 2'-N-[L-(-)-α-hydroxy-γ-aminobutyryl]XK-62-2] the anti-bacterial activity [11] was “strong anti-bacterial activity”, the MIC [1] was 0.39 µg/mL (≈ 0.691 µM) and the MIC [3] was 0.2 µg/mL (≈ 0.354 µM). It also gave an MIC [12] of 25 µg/mL (≈ 44.3 µM), an MIC [5] of 0.1 µg/mL (≈ 0.177 µM) and an MIC [13] of 0.05 µg/mL (≈ 0.0885 µM). For the same compound, the MIC [14] was 0.05 µg/mL (≈ 0.0885 µM), the MIC [7] was 0.39 µg/mL (≈ 0.691 µM) and the MIC [15] was 3.1 µg/mL (≈ 5.49 µM). For the same compound, the “anti-bacterial activity” value [15] was “strong anti-bacterial activity”, the MIC [10] was 0.39 µg/mL (≈ 0.691 µM) and the MIC [16] was 0.05 µg/mL (≈ 0.0885 µM). For the same compound, the “anti-bacterial activity” value [16] was “strong anti-bacterial activity”.
